Data on three molecules can be found in patent publication US4983328A, “N-(4-(3-aminopropyl)aminobutyl)-2-(ω-gua nidino-fatty-acid-amido(-2-substituted-ethanamide, salt thereof, and process for preparation thereof” (Bristol-Myers Company, priority 1981, dated 1991).

Data set [1] in a line: cumulative toxicity in mice (maximum tolerated dose, once a day for 6 consecutive days). As to conditions: mouse, in vivo, ip, i.p. once a day for 6 consecutive days, total dose, read-out: Maximum Tolerated Dose (total dose not causing death). The essentials: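 Mice dosed intraperitoneally once a day for 6 consecutive days with a fixed amount per unit body weight. The value is the maximum total dose not causing death.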

The test system of another data set is mouse leukemia L-1210. Put plainly: therapeutic effect on implanted cancer in mice (L-1210, survival over 30 days). Format: in vivo, mouse (BDF1). As to conditions: L1210, ip, 720 h, 6 days; for responders at 1.56 mg/kg / response vs control in vivo at 1.56 mg/kg: 1.56 mg/kg/day i.p.; for responders at 1.56 mg/kg / responders at 3.13 mg/kg / responders at 6.25 mg/kg / responders at 12.5 mg/kg / responders at 25 mg/kg / responders at 50 mg/kg / responders at 0.2 mg/kg / responders at 0.39 mg/kg / responders at 0.78 mg/kg: read-out: Number of mice survived for 30 days (converted); for response vs control in vivo at 1.56 mg/kg / response vs control in vivo at 3.13 mg/kg / response vs control in vivo at 6.25 mg/kg / response vs control in vivo at 12.5 mg/kg / response vs control in vivo at 25 mg/kg / response vs control in vivo at 50 mg/kg / response vs control in vivo at 0.2 mg/kg / response vs control in vivo at 0.39 mg/kg / response vs control in vivo at 0.78 mg/kg: read-out: Prolongation of survival period (%), T/C × 100; for responders at 3.13 mg/kg / response vs control in vivo at 3.13 mg/kg: 3.13 mg/kg/day i.p.; for responders at 6.25 mg/kg / response vs control in vivo at 6.25 mg/kg: 6.25 mg/kg/day i.p.; for responders at 12.5 mg/kg / response vs control in vivo at 12.5 mg/kg: 12.5 mg/kg/day i.p.; for responders at 25 mg/kg / response vs control in vivo at 25 mg/kg: 25 mg/kg/day i.p.; for responders at 50 mg/kg / response vs control in vivo at 50 mg/kg: 50 mg/kg/day i.p.; for responders at 0.2 mg/kg / response vs control in vivo at 0.2 mg/kg: 0.20 mg/kg/day i.p.; for responders at 0.39 mg/kg / response vs control in vivo at 0.39 mg/kg: 0.39 mg/kg/day i.p.; for responders at 0.78 mg/kg / response vs control in vivo at 0.78 mg/kg: 0.78 mg/kg/day i.p. The essentials:
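Male BDF1 mice aged 5 weeks received an intraperitoneal inoculation of 10^5 L-1210 mouse leukemia cells. Starting on the inoculation day, test compounds dissolved in physiological saline were injected intraperitoneally once daily for 6 consecutive days, and animals were then followed for 30 days to record survival.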

The subject of data set [2] is mouse leukemia L-1210 cells. Put plainly: growth inhibitory activity to cancer cells in vitro (L-1210, 48 hours). As to conditions: for inhibition at 2.5 µg/mL: L1210, 2.5 mcg/ml; for inhibition at 5 µg/mL: L1210, 5 mcg/ml; for inhibition at 10 µg/mL: L1210, 10 mcg/ml; for inhibition at 20 µg/mL: L1210, 20 mcg/ml; for inhibition at 40 µg/mL: L1210, 40 mcg/ml; for IC50: L1210, L-1210 cells, read-out: 50% inhibitory concentration. Format: cell-based. The essentials:
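L-1210 cells from DBA/2 mouse ascites, cultured at 5×10^4 cells per well in RPMI 1640 with 10% FCS and 5 μM 2-mercaptoethanol, 37° C, CO2, for 48 h with compound. Cell counts by Coulter Counter gave % inhibition (1−T/C)×100, and IC50 was derived across concentrations.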

Data set [3] in a line: acute toxicity in mice (single intraperitoneal administration). The note with it: mouse, in vivo, ip; mice, single i.p.; read-out: LD50 (median lethal dose on single administration). On the procedure:
In Table 8 median lethal doses (LD50) of typical compounds of this invention are shown, measured in mice upon single intraperitoneal administration, as well as maximum tolerated doses in terms of total dose when a fixed amount per unit body weight was administered intraperitoneally to mice once a day for 6 consecutive days.
*Median lethal dose on single administration.

The mark [4] stands for this setting: read-out: Growth inhibition (%), (1-T/C) × 100.

Values after ≈ are worked out from the molar mass of the structure shown.

With `COC(NC(=O)C[C@@H](O)CCCCNC(=N)N)C(=O)NCCCCNCCCN` (stereo partly drawn) [Compound 22, N-[4-(3-aminopropyl)aminobutyl]-2-(7-guanidino-3-hydroxyheptanamido)-2-methoxyethanamide], in data set [1], the MTD is more than 150 mg/kg. Moreover, in the data set on mouse leukemia L-1210, the responders at 1.56 mg/kg is 0%, the response vs control in vivo at 1.56 mg/kg worked out at 117%, the responders at 3.13 mg/kg was 0% and the response vs control in vivo at 3.13 mg/kg is 163%. In addition, in the data set with mouse leukemia L-1210, the responders at 6.25 mg/kg was 50%, the response vs control in vivo at 6.25 mg/kg is more than 332%, the responders at 12.5 mg/kg was 62.5% and the response vs control in vivo at 12.5 mg/kg is more than 380%. In the data set on mouse leukemia L-1210, the responders at 25 mg/kg was 75%, the response vs control in vivo at 25 mg/kg is more than 414%, the responders at 50 mg/kg was 0% and the response vs control in vivo at 50 mg/kg turned out to be 7%. In addition, in data set [2] (setting [4]), the inhibition at 2.5 µg/mL turned out to be 60.8%, the inhibition at 5 µg/mL is 82.6%, the inhibition at 10 µg/mL came out at 94.5% and the inhibition at 20 µg/mL was found to be 96.9%. In addition, the inhibition at 40 µg/mL in data set [2] (setting [4]) was 98.3%. Besides, the IC50 in data set [2] was 1.8 µg/mL (≈ 4.31 µM). The LD50 in data set [3] was in the range of 25 to 50 mg/kg.
Regarding `COC(NC(=O)CCCCCCCCNC(=N)N)C(=O)NCCCCNCCCN` (stereo not drawn) [Compound 11, N-[4-(3-aminopropyl)aminobutyl]-2-(9-guanidinononanamido)-2-methoxyethanamide], in data set [1], the MTD is more than 75 mg/kg. In the data set on mouse leukemia L-1210, the responders at 0.2 mg/kg was 0%, the response vs control in vivo at 0.2 mg/kg turned out to be 107%, the responders at 0.39 mg/kg is 0% and the response vs control in vivo at 0.39 mg/kg was found to be 143%. Further, in the data set with mouse leukemia L-1210, the responders at 0.78 mg/kg is 0%, the response vs control in vivo at 0.78 mg/kg turned out to be 200%, the responders at 1.56 mg/kg is 0% and the response vs control in vivo at 1.56 mg/kg amounted to 200%. Further, in the data set on mouse leukemia L-1210, the responders at 3.13 mg/kg was 50%, the response vs control in vivo at 3.13 mg/kg is more than 357%, the responders at 6.25 mg/kg was 75% and the response vs control in vivo at 6.25 mg/kg was more than 393%. For the same molecule, in the data set on mouse leukemia L-1210, the responders at 12.5 mg/kg is 50%, the response vs control in vivo at 12.5 mg/kg is more than 357%, the responders at 25 mg/kg is 0% and the response vs control in vivo at 25 mg/kg is 0%. In addition, in the data set on mouse leukemia L-1210, the responders at 50 mg/kg is 0% and the response vs control in vivo at 50 mg/kg came to 0%. Further, in data set [2] (setting [4]), the inhibition at 5 µg/mL is 35%, the inhibition at 10 µg/mL turned out to be 52.2%, the inhibition at 20 µg/mL was determined as 59.4% and the inhibition at 40 µg/mL is 71.8%. In addition, in data set [2] (L1210, 80 mcg/ml, read-out: Growth inhibition (%), (1-T/C) × 100), the inhibition at 80 µg/mL is 77.9%. For the same molecule, the IC50 in data set [2] was 10 µg/mL (≈ 23.3 µM). The LD50 in data set [3] was 12.5 to 25 mg/kg.
With `N=C(N)NCCCCCCCCC(=O)NC(O)C(=O)NCCCCNCCCN` (stereo not drawn) [Compound 6, N-[4-(3-aminopropyl)aminobutyl]-2-(9-guanidinononanamido)-2-hydroxyethanamide], the MTD in data set [1] was more than 75 mg/kg. Also, in the data set with mouse leukemia L-1210, the responders at 0.2 mg/kg was 50%, the response vs control in vivo at 0.2 mg/kg was more than 354%, the responders at 0.39 mg/kg was 50% and the response vs control in vivo at 0.39 mg/kg is more than 383%. In addition, in the data set on mouse leukemia L-1210, the responders at 0.78 mg/kg is 100%, the response vs control in vivo at 0.78 mg/kg was more than 429%, the responders at 1.56 mg/kg is 75% and the response vs control in vivo at 1.56 mg/kg is more than 393%. For the same molecule, in the data set on mouse leukemia L-1210, the responders at 3.13 mg/kg is 50%, the response vs control in vivo at 3.13 mg/kg was more than 386%, the responders at 6.25 mg/kg was 100% and the response vs control in vivo at 6.25 mg/kg was more than 429%. In the data set on mouse leukemia L-1210, the responders at 12.5 mg/kg was 100%, the response vs control in vivo at 12.5 mg/kg was more than 429%, the responders at 25 mg/kg was 0% and the response vs control in vivo at 25 mg/kg was determined as 0%. In the data set with mouse leukemia L-1210, the responders at 50 mg/kg is 0% and the response vs control in vivo at 50 mg/kg stood at 0%. Besides, the inhibition at 1.25 µg/mL in data set [2] (L1210, 1.25 mcg/ml, read-out: Growth inhibition (%), (1-T/C) × 100) was 38%. In addition, in data set [2] (setting [4]), the inhibition at 2.5 µg/mL was 40.3%, the inhibition at 5 µg/mL was found to be 45.5%, the inhibition at 10 µg/mL turned out to be 50.3% and the inhibition at 20 µg/mL is 57.5%. For the same molecule, the IC50 in data set [2] came out at 8 µg/mL (≈ 19.3 µM). Also, the LD50 in data set [3] was 12.5 to 25 mg/kg.
